Measured values reported in article PMC6906472, “Purification and biological activity of natural variants synthesized by tridecaptin M gene cluster and in vitro drug-kinetics of this antibiotic class” (Scientific Reports, 2019).
Converted amounts (≈) assume the structure as drawn. Read-outs that look alike come from different tables or passages of the source. Square brackets hold non-standard residues; d marks the D form. Peptide text beside a SMILES is read from it. * marks the point of attachment. X2 = CC[C@H](C)CCCC[C@@H](O)CC(=O)*; d(aIle) = CC[C@H](C)[C@@H](N)C(=O)O; X1 = CC[C@H](C)CCCCC(=O)*; dDab = NCC[C@@H](N)C(=O)O; βNA = c1ccc2cc(N*)ccc2c1; Dab = NCC[C@H](N)C(=O)O

Assays:
[1] = system: K. pneumoniae ATCC 700603; experiment: Synergy assay with efflux pump inhibitors; type: cell-based
Description: (§1) Acinetobacter baumannii ATCC 19606, Pseudomonas aeruginosa ATCC 27853, K. pneumoniae ATCC 700603, K. pneumoniae P3R, K. pneumoniae GMCH 13 and K. pneumoniae GMCH 15 were grown in CA-MHB and adjusted to ~4 × 10^5 CFU/ml. 100 µl of fresh CA-MHB containing carbonyl cyanide m-chlorophenyl hydrazine (CCCP) or phenylalanine-arginine beta-naphthylamide (PAβN) (at a final concentration of their 1/4th of MIC or 1/8th of MIC) was added to the wells of a 96-well flat bottom plate. Tridecaptin M was diluted in a 2-fold manner. 100 µl of culture was added and the plates were incubated for 16 to 18 h at 37 °C and observed for MICs. The fold modulation in MICs of tridecaptin M was calculated by comparing the results in the presence or absence of CCCP and PAβN.

[2] = system: K. pneumoniae P3R (Tri-M Resistant); experiment: microbe, parasite or virus in culture
Description: as §1

P. aeruginosa ATCC 27853 [3] = experiment: microbe, parasite or virus in culture
Description: as §1

A. baumannii ATCC 19606 [4] = experiment: microbe, parasite or virus in culture; settings: for Intrinsic Activity; MIC: ~4 × 10^5 CFU/ml, CA-MHB, 16 to 18 h, 37 °C
Description: as §1

K. pneumoniae GMCH 15 = experiment: microbe, parasite or virus in culture; settings: for Intrinsic Activity; MIC: ~4 × 10^5 CFU/ml, CA-MHB, 16 to 18 h, 37 °C
Description: as §1

K. pneumoniae GMCH 13 = experiment: microbe, parasite or virus in culture; settings: for Intrinsic Activity; MIC: ~4 × 10^5 CFU/ml, CA-MHB, 16 to 18 h, 37 °C
Description: as §1

[5] = system: Serratia marcescens MTCC 97
Description: (§2) MICs for all the compounds were determined by broth microdilution assay, according to CLSI guidelines[16] as described previously. Haemolysis experiments were performed with fresh rabbit RBCs[11]. All the compounds were tested at a concentration of 128 µg/ml. To obtain rabbit blood, the experiments and the protocols were in accordance with the ethical standards of the Institutional Animal Ethics Committee (IAEC) of the Institute of Microbial Technology approved (Approval no. IAEC/17/11) by Committee for the Purpose of Control And Supervision of Experiments on Animals (CPCSEA, Government of India).

[6] = system: K. pneumoniae AH-16 (Col-R)
Description: as §2

P. aeruginosa ATCC 27853 [7] = system: P. aeruginosa ATCC 27853
Description: as §2

A. baumannii ATCC 19606 [8] = system: A. baumannii ATCC 19606
Description: as §2

E. coli CF-23 (mcr-1) = system: E. coli CF-23 (mcr-1)
Description: as §2

K. pneumoniae P3R (M1-R) = settings: broth microdilution, CLSI guidelines; M1-resistant mutant of ATCC 700603
Description: as §2

[9] = system: K. pneumoniae AH-3 (Col-R)
Description: as §2

[10] = system: K. pneumoniae ATCC 700603
Description: as §2

[11] = system: Proteus mirabilis MTCC 1429
Description: as §2

[12] = system: outer membrane of A. baumannii ATCC 19606, P. aeruginosa ATCC 27853, K. pneumoniae ATCC 700603, P3R; experiment: Outer membrane permeabilization (NPN assay); type: cell-based; settings: peptide 4 µg/ml and 8 µg/ml; triplicate, three biological repeats
Description: For outer membrane permeabilization study, NPN dye was used as described previously. A. baumannii ATCC 19606, P. aeruginosa ATCC 27853, K. pneumoniae ATCC 700603 were treated with two different concentrations of the peptide (4 µg/ml and 8 µg/ml). To check alteration in the cytoplasmic membrane potential, DiSC3(5) probe was used[11].

[13] = Order of elution in RP-HPLC (hydrophobicity); type: physicochemical; settings: C18, acetonitrile/water with 0.075% TFA, in words
Description: The strain M-152 was inoculated in 700 ml MHB in 2 L Erlenmeyer flask, and the crude fermentation extract preparation, ion-exchange chromatography and the first step of RP-HPLC were performed as described for tridecaptin M[11]. The peaks obtained in HPLC were assayed against K. pneumoniae using agar well diffusion method. The active peaks (Fig. 1) were purified by the second round of HPLC under different conditions, optimized for each compound. The mobile phase system for all the peaks consisted of solvent A as 20% acetonitrile in Milli-Q and solvent B as 100% acetonitrile. Both solvents contained 0.075% TFA. C18 column (Waters, XBridge, 10 mm × 250 mm, 5 µm, 130 Å) was used to purify the compounds. Following gradient was used for the resolution of different components; for P1, 8% B to 26% B in 30 min, for P3, 8% B to 25% B in 23 min, for P4, 8% B to 23% B in 22 min, for P5, 3% B to 21.5% B in 24 min, for P6, 10% B to 25% B in 25 min, for P7, 8% B to 28% B in 25 min, for P8, 8% B to 26% B in 23 min, for P10, 10% B to 28% B in 30 min, for P11, 10% B to 28% B in 31 min. In two to three min, the gradient was reversed to initial column conditions and was equilibrated for five to six min, before the next injection. Multiple injections were given to generate a sufficient quantity of each compound for further studies.

[14] = system: efflux in A. baumannii ATCC 19606; settings: CCCP 4 mg/L, Nile Red 5 μM, energization with 50 mM glucose, fluorescence 552/636 nm
Description: To assess the effect of CCCP on efflux in A. baumannii ATCC 19606, the Nile Red efflux assay was used[17]. The overnight grown culture was centrifuged at 3000 g for 10 min at room temperature. The pellet was resuspended in 20 mM potassium phosphate buffer (pH 7.0) containing 1 mM MgCl2 and washed twice with the same buffer. The cells were adjusted to an OD660 of 1.0 and the aliquots were transferred to a glass tubes containing CCCP at a final concentration of 4 mg/L. After 15 min, Nile Red was added to a final concentration of 5 μM, and the cell suspension was incubated in a shaker (140 rpm, 37 °C) for 3 h. The cells were kept at room temperature for 60 min and centrifuged for 5 min at 3000 g. The supernatant was discarded and the cell pellet was resuspended in assay buffer. Next, Nile Red efflux was immediately triggered by rapid energization with 50 mM glucose and the fluorescence was recorded at excitation and emission wavelength 552 nm and 636 nm, respectively, over a period of 5 min.

[15] = broth microdilution, CLSI guidelines
[16] = ~4 × 10^5 CFU/ml, CA-MHB, 16 to 18 h, 37 °C

| Compound | Peptide MIC [5] | Peptide MIC [6] | Peptide MIC (P. aeruginosa ATCC 27853 [7]; ATCC 27853) | Peptide MIC (A. baumannii ATCC 19606 [8]; ATCC 19606) | Peptide MIC (E. coli CF-23 (mcr-1)) | Peptide MIC (K. pneumoniae P3R (M1-R)) | Peptide MIC [9] | Peptide MIC [10] | Peptide MIC [11] | further results |
| --- | --- | --- | --- | --- | --- | --- | --- | --- | --- | --- |
| NC(N)=NCCC[C@H](NC(=O)[C@@H](N)Cc1ccccc1)C(=O)Nc1ccc2ccccc2c1 [PAβN, phenylalanine-arginine beta-naphthylamide, reference compound] (H-Phe-Arg-βNA) |  |  |  |  |  |  |  |  |  | MIC ([1]; Klebsiella pneumoniae, ATCC700603, read-out: Intrinsic Activity, MIC): 256 µg/mL; MIC ([2]; Klebsiella pneumoniae, read-out: Intrinsic Activity, MIC): 256 µg/mL (≈ 573 µM); MIC (P. aeruginosa ATCC 27853 [3]; Pseudomonas aeruginosa, ATCC27853, read-out: Intrinsic Activity, MIC): 64 µg/mL (≈ 143 µM); MIC (A. baumannii ATCC 19606 [4]; Acinetobacter baumannii, ATCC19606, read-out: Intrinsic Activity, MIC): 64 µg/mL (≈ 143 µM); MIC (K. pneumoniae GMCH 15; Klebsiella pneumoniae, GMCH15, read-out: Intrinsic Activity, MIC): 256 µg/mL (≈ 573 µM); MIC (K. pneumoniae GMCH 13; Klebsiella pneumoniae, GMCH13, read-out: Intrinsic Activity, MIC): 256 µg/mL (≈ 573 µM) |
| CC[C@H](C)CCCCC(=O)NCC(=O)N[C@H](CCN)C(=O)NCC(=O)N[C@H](CO)C(=O)N[C@H](Cc1c[nH]c2ccccc12)C(=O)N[C@@H](CO)C(=O)N[C@@H](CCN)C(=O)N[C@H](CCN)C(=O)N[C@H](C(=O)N[C@@H](CCC(=O)O)C(=O)N[C@H](C(=O)N[C@@H](C(=O)N[C@@H](CO)C(=O)O)C(C)C)C(C)C)[C@@H](C)CC [M2] (X1-G[dDab]G[dS][dW]S[Dab][dDab]IEV[dV]S-OH) | >16 µg/mL | >16 µg/mL | >32 µg/mL | >32 µg/mL | 16 µg/mL | >32 µg/mL | 8 µg/mL | 8 µg/mL | >16 µg/mL |  |
| CC[C@H](C)CCCC[C@@H](O)CC(=O)N[C@@H](C(=O)N[C@H](CCN)C(=O)NCC(=O)N[C@H](CO)C(=O)N[C@H](Cc1ccccc1)C(=O)N[C@@H](CO)C(=O)N[C@@H](CCN)C(=O)N[C@H](CCN)C(=O)N[C@@H](Cc1ccccc1)C(=O)N[C@@H](CCC(=O)O)C(=O)N[C@H](C(=O)N[C@@H](C(=O)N[C@@H](CO)C(=O)O)[C@@H](C)CC)[C@@H](C)CC)C(C)C [M11] (X2-[dV][dDab]G[dS][dF]S[Dab][dDab]FEI[d(aIle)]S-OH; N-terminus and C-terminus assumed) | 4 µg/mL | 1 µg/mL | 8 µg/mL |  | 1 µg/mL |  | 1 µg/mL | 2 µg/mL | 4 µg/mL | NPN uptake [12]: greater uptake of NPN, compared to M1; fold modulation (reduction) of MIC in the presence of CCCP (A. baumannii ATCC 19606 [4]; MIC with versus without CCCP): four; Intrinsic Activity; MIC (A. baumannii ATCC 19606 [4]): 4 µg/mL; MIC of peptide in the presence of CCCP (K. pneumoniae GMCH 15; CCCP at 1/4th MIC): 2 µg/mL; MIC of peptide in the presence of CCCP (K. pneumoniae GMCH 15; CCCP at 1/8th MIC): 2 µg/mL; Intrinsic Activity; MIC (K. pneumoniae GMCH 15): 2 µg/mL; MIC of peptide in the presence of CCCP (K. pneumoniae GMCH 13; GMCH 13): 2 µg/mL; Intrinsic Activity; MIC (K. pneumoniae GMCH 13): 4 µg/mL; hydrophobicity by order of elution in HPLC [13]: greater hydrophobicity |
| CC[C@H](C)CCCCC(=O)NCC(=O)N[C@H](CCN)C(=O)NCC(=O)N[C@H](CO)C(=O)N[C@H](Cc1c[nH]c2ccccc12)C(=O)N[C@@H](CO)C(=O)N[C@@H](CCN)C(=O)N[C@H](CCN)C(=O)N[C@H](C(=O)N[C@@H](CCC(=O)O)C(=O)N[C@H](C(=O)N[C@@H](C(=O)N[C@@H](CO)C(=O)O)C(C)C)[C@@H](C)CC)[C@@H](C)CC [M6] (X1-G[dDab]G[dS][dW]S[Dab][dDab]IEI[dV]S-OH) | 16 µg/mL | 2 µg/mL | >32 µg/mL | >32 µg/mL | 4 µg/mL | 16 µg/mL | 4 µg/mL | 4 µg/mL | >16 µg/mL |  |
| CC[C@H](C)CCCCC(=O)NCC(=O)N[C@H](CCN)C(=O)NCC(=O)N[C@H](CO)C(=O)N[C@H](Cc1ccccc1)C(=O)N[C@@H](CO)C(=O)N[C@@H](CCN)C(=O)N[C@H](CCN)C(=O)N[C@H](C(=O)N[C@@H](CCC(=O)O)C(=O)N[C@H](C(=O)N[C@@H](C(=O)N[C@@H](CO)C(=O)O)[C@@H](C)CC)[C@@H](C)CC)[C@@H](C)CC [M8] (X1-G[dDab]G[dS][dF]S[Dab][dDab]IEI[d(aIle)]S-OH) | 16 µg/mL | 4 µg/mL |  |  | 4 µg/mL | 128 µg/mL | 8 µg/mL | 4 µg/mL | >16 µg/mL | Peptide MIC (P. aeruginosa ATCC 27853 [7]; [15]): >128 µg/mL; Peptide MIC (A. baumannii ATCC 19606 [8]; [15]): 128 µg/mL |
| carbonyl cyanide m-chlorophenyl hydrazine [CCCP, reference compound] |  |  |  |  |  |  |  |  |  | Intrinsic Activity; MIC [1, 16]: 128 µg/mL; Intrinsic Activity; MIC [2, 16]: 128 µg/mL; Intrinsic Activity; MIC (P. aeruginosa ATCC 27853 [3]; [16]): 64 µg/mL; Intrinsic Activity; MIC (A. baumannii ATCC 19606 [4]): 64 µg/mL; Intrinsic Activity; MIC (K. pneumoniae GMCH 15): 64 µg/mL; Intrinsic Activity; MIC (K. pneumoniae GMCH 13): 32 µg/mL; effect on efflux of Nile red dye [14]: inhibited the efflux of Nile red dye |
| CC[C@H](C)CCCCC(=O)NCC(=O)N[C@H](CCN)C(=O)NCC(=O)N[C@H](CO)C(=O)N[C@H](Cc1ccccc1)C(=O)N[C@@H](CO)C(=O)N[C@@H](CCN)C(=O)N[C@H](CCN)C(=O)N[C@H](C(=O)N[C@@H](CCC(=O)O)C(=O)N[C@H](C(=O)N[C@@H](C(=O)N[C@@H](CO)C(=O)O)C(C)C)[C@@H](C)CC)[C@@H](C)CC [M5] (X1-G[dDab]G[dS][dF]S[Dab][dDab]IEI[dV]S-OH) | 8 µg/mL | 16 µg/mL | >32 µg/mL | >32 µg/mL | 16 µg/mL | 16 µg/mL | 16 µg/mL | 16 µg/mL | 16 µg/mL |  |
| CC[C@H](C)CCCCC(=O)NCC(=O)N[C@H](CCN)C(=O)NCC(=O)N[C@H](CO)C(=O)N[C@H](Cc1c[nH]c2ccccc12)C(=O)N[C@@H](CO)C(=O)N[C@@H](CCN)C(=O)N[C@H](CCN)C(=O)N[C@H](C(=O)N[C@@H](CCC(=O)O)C(=O)N[C@H](C(=O)N[C@@H](C(=O)N[C@@H](CO)C(=O)O)[C@@H](C)CC)[C@@H](C)CC)C(C)C [M7] (X1-G[dDab]G[dS][dW]S[Dab][dDab]VEI[d(aIle)]S-OH) | 8 µg/mL | 8 µg/mL | >32 µg/mL | >32 µg/mL | 16 µg/mL | 16 µg/mL | 8 µg/mL | 8 µg/mL | >16 µg/mL |  |
